Reference: US20250049939A1, “NOVEL FLT3 ANTIBODIES AND ANTIBODY-DRUG-CONJUGATES BASED THEREON, THERAPEUTIC METHODS AND USES THEREOF IN COMBINATION WITH TYROSINE KINASE INHIBITORS” (TUBULIS GmbH, priority 2021, published 2025)
Square brackets hold non-standard residues; d marks the D form. Peptide text beside a SMILES is read from it. Dolaproine = CO[C@@H]([C@@H]1CCCN1)[C@@H](C)C(=O)O; Dil = CC[C@H](C)[C@H](NC)[C@@H](CC(=O)O)OC; NMeV = CN[C@H](C(=O)O)C(C)C

How the values were obtained:
[1] = molecular target: T1, Ba/F3 cells expressing human wildtype FLT3 (Homo sapiens, UniProt P36888); experiment: Cytotoxicity in Ba/F3 hFLT3 wt, 72 h; conditions: Ba/F3 cells expressing the empty vector or human wild type FLT3
T1 sequence (P36888 27-993): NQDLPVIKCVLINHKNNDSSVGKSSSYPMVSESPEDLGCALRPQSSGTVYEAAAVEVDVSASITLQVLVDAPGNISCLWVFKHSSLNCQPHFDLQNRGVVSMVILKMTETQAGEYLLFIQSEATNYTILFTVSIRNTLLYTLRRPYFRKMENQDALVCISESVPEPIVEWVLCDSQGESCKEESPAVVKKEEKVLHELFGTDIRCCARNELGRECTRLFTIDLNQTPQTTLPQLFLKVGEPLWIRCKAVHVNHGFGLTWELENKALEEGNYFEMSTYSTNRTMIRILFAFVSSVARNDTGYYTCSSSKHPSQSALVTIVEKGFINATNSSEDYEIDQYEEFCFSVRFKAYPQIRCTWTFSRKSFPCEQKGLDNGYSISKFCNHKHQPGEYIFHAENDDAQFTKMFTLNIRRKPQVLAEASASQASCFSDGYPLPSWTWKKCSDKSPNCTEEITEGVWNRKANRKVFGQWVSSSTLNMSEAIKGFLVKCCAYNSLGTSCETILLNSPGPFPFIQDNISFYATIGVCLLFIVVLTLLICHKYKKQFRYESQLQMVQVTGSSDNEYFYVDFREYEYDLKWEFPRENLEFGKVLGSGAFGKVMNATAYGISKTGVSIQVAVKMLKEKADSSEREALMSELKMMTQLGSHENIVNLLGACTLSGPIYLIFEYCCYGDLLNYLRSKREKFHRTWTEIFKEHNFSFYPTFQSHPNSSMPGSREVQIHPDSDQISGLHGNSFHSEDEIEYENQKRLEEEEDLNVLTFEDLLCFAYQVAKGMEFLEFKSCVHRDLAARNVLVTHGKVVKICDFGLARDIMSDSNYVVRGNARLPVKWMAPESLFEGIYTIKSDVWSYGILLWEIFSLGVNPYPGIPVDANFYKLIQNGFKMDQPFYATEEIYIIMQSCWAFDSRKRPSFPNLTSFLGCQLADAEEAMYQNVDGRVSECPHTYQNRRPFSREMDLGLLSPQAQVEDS
Protocol: (§1) (A) Schematic process of P5 conjugation technology via disulfite bond reduction and Staudinger induced Michael addition. Final ADC consists of monoclonal antibody (20D9 or IgG1 antibody) coupled to monomethyl-auristatin F toxin. Figure was created with BioRender.com. (B-E,G) Assessment of cytotoxicity of ADCs in different Ba/F3 cell lines. Viability was determined after 72 h treatment with different concentrations by trypan blue exclusion count and compared to untreated control. Mean±s.d. of n=3 biological replicates. […] Calculation based on data from FIGS. 2E and 2G calculated by GraphPad Prism. Unpaired, two-tailed Student's t-test; *p<0.05. Each dot represents a replicate, horizontal line indicates mean.
(§2) AML cells were treated once (d0) and viability was determined after 96h using Resazurin solution (50 µM final concentration, 4 h incubation) (R12204, Thermo Fisher Scientific). For Ba/F3 cell assays, cells were treated once (d0) and viable cells were counted after 72 h on Vi-Cell Cell Viability Analyzer (Beckman Coulter, Krefeld, Germany). Calculation of IC50 values were performed using GraphPad Prism version 6.07 (GraphPad Software, La Jolla, CA, USA).

[2] = system: FLT3 cell surface expression in MOLM-13 cells; experiment: FLT3 cell surface expression in MOLM-13 after kinase inhibitors, flow cytometry; assay type: cell-based, human; conditions: 6, 24, 48 and 72 h incubation
Protocol: Cells were analyzed in flow cytometry after treatment. Dotted line represents MFI ratio of untreated cells. Mean±s.d. of n=2 is depicted. […] Grey triangles indicate increasing drug concentrations. […] Mean±standard deviation is depicted.

[3] = system: CD34 positive healthy bone marrow (BM) cells; experiment: Viability of healthy CD34+ bone marrow cells, Annexin V/PI, 4 days; conditions: 1000 ng/ml
Description: (C) Percentage of living cells measured with Annexin V/PI staining and normalized to PBS.

[4] = system: Ba/F3 cells expressing both FLT3 and CD64; experiment: Cytotoxicity in Ba/F3-CD64-FLT3, 72 h; assay type: cell-based, human
Protocol: as §1, §2

healthy CD34+ BM cells = conditions: 1 μg/ml
Description: (§3) (D) Differentiation assessment after staining to differentiation markers. CMP: common myeloid GMP: progenitors; granulocyte-monocyte progenitors; MEP: megakaryocyte/erythroid progenitors; MLP: multilymphoid progenitors; MPP: multipotent progenitors; hematopoietic stem cells (HSC). (E) Assessment of clonogenic capacity of healthy CD34+ BM cells. […] After 14 days, colonies were counted. GEMM: granulocyte, erythrocyte, macrophage, megakaryocyte. GM: granulocyte, macrophage. M: macrophage. G: granulocyte. E: erythrocyte. BFU-E: burst-forming unit erythrocyte. CFU: colony forming unit. 2way ANOVA; *p<0.05; Mean±s.d. of n=5.

[5] = system: Ba/F3-pMIY-CD64 expressing cells; experiment: Cytotoxicity in Ba/F3-pMIY-CD64, 72 h; assay type: cell-based, human
Protocol: as §1, §2

[6] = system: CD34 positive healthy bone marrow (BM) cells; experiment: Differentiation assessment of healthy CD34+ cells; conditions: 1 μg/ml
Description: as §3

MOLM-13 xenograft = MOLM-13 xenograft in NSG mice, bioluminescence imaging; assay type: in vivo; conditions: 3 mg/kg; Q1W×2
MOLM-13 cells = experiment: Cytotoxicity in MOLM-13, 96 h resazurin; assay type: cell-based, human
Description: (A) Correlation of MFI of CD64 cell surface expression and MFI of FLT3 cell surface expression of myeloid human cell lines measure in flow cytometry. Expression data presented in Supplementary FIGS. 4A and B. Black line indicates simple linear regression with error interval. r=Pearson correlation coefficient; r^2=Coefficient of determination; p=p value from two tailed test with confidence interval of 95%. MFI=mean fluorescence intensity. (B,C,E,F) Assessment of cytotoxicity of ADCs in different human cell lines. Viability was determined after 96h treatment with different concentrations of ADCs by resazurin fluorescence and normalized to untreated control. Dashed line indicates 100 ng/ml drug concentration. Mean±s.d. of n=3 biological replicates. […] Black line indicates simple linear regression with error interval. (E) Treatment of FLT3 positive human cell lines with IgG1-ADC.

In the case of `CC[C@H](C)[C@@H]([C@@H](CC(=O)N1CCC[C@H]1[C@H](OC)[C@@H](C)C(=O)N[C@@H](Cc1ccccc1)C(=O)O)OC)N(C)C(=O)[C@@H](NC(=O)[C@@H](NC)C(C)C)C(C)C` [MMAF, monomethyl auristatin F] (H-[NMeV]V[Dil][Dolaproine]F-OH), the Cytotoxicity of controls [1] is reported as “no difference in cytotoxicity”.
`CNC(=O)c1cc(Oc2ccc(NC(=O)Nc3ccc(Cl)c(C(F)(F)F)c3)cc2)ccn1` [Sorafenib] was tested, and the “FLT3 cell surface expression” value [2] was “increase of FLT3 cell surface expression”.
With “IgG1-ADC: MMAF conjugated to the IgG1 based antibody palivizumab; CD64 but no FLT3 binding” the “Cell viability of CD34+ cells” value [3] was “significantly decreased cell viability”, the “IC50, Ba/F3 expressing both FLT3 and CD64” value [4] was 0.0783 µg/mL and the Cytotoxicity of controls [1] was “no cytotoxicity”. The “Clonogenic capacity (CFU)” value (healthy CD34+ BM cells) was “significantly reduced granulocytic, monocytic and granulocytic-macrophagic colony formation”, the “IC50, Ba/F3-pMIY-CD64” value [5] was 31.8 ng/ml and the “Differentiation: cell populations of CD34+ cells” value [6] was “significantly decreased MLPs, CMPs, and GMPs but to a lower extent compared to the 20D9 ADC”. The “Anti tumor effect, native and deglycosylated ADCs” value (MOLM-13 xenograft) was “reduced compared to native 20D9-ADC”.
With “deglycosylated IgG1-ADC: IgG1-ADC with N-linked glycans removed” the “Anti tumor effect, native and deglycosylated ADCs” value (MOLM-13 xenograft) was “only a minimal effect compared to PBS control mice” and the “Activity on MOLM-13 cells” value (MOLM-13 cells) was “no activity”.
